Measured values taken from patent publication US20120107932A1, “PRRS-VIRUS RECEPTOR AND ITS INHIBITOR” (priority 2009, published 2012).

Legend:
[1] = test system: MA-104 and PAM cells; assay: Indirect immunofluorescence assay (IFA), serum antibodies binding to cells; type: cell-based; conditions: serum of mice after third immunization with the named antigen
Procedure: Indirect immunofluorescence assay (IFA): After dilution, combine the mouse anti-NMHC II-A protein and anti-polypeptide antibodies after immunization three times with MA-104 and PAM monolayer cells for 0.5-2 hours, then bind the goat anti-mouse IgG testing antibody labeled with fluorescence to the cells.

[2] = test system: PRRSV; assay: PRRSV-receptor blocking test (CPE caused by PRRSV in Marc-145 and PAM cells); type: cell-based; parameters: key to Inhibition levels of CPE: “−” means no CPE; “+” means CPE in 25% cells; “++” means CPE in 50% cells; “+++” means CPE in above 75% cells; conditions: for Inhibition levels of CPE: PRRSV 10^3TCID50/ml, Marc-145 and PAM cells
Procedure: Marc-145 and PAM cells (10^5 cells/ml) are cultured on DMEM medium (containing 100 U/ml penicillin, 50 μg/ml streptomycin sulphate, 50 μg/ml gentamycin and 10% calf serum) in an incubator under 37 □ and 5% CO2 to form monolayer. Dissolve the NMHC II-A protein, artificially synthesized polypeptides, serum antibodies and (+)-blebbistatin obtained by using the methods of Implementation Examples 1, 2 and 4 in the DMEM medium; after de-germing by filtration, mix with PRRSV strains under different fixation concentrations (10^3TCID50/ml) and incubate an hour, and then add the cells above; perform eight repetitions for each dilution; after adsorption at 37 °C for an hour, remove the mixture, add DMEM medium and culture continuously; and observe CPE daily. The CPE manifestations caused by PRRSV infection include rough cell surface, strong refractivity, and finally cell shedding. The results in Table 5 illustrate the CPE inhibition levels of the NMHC II-A protein, artificially synthesized polypeptides, serum antibodies and (+)-blebbistatin under the each-well concentration of μg, μg, μL and μM in turn. The judgment results of cell CPE are expressed as follows: “−” means no CPE, “+” means CPE in 25% cells, “++” means CPE in 50% cells, and “+++” means CPE in above 75% cells.

[3] = test system: MA-104 and PAM cells; assay: Effects of blebbistatin on cells (cytopathic effects, CPE); type: cell-based; conditions: Table 4, Marc-145 and PAM cells
Procedure: Marc-145 and PAM cells (10^5 cells/ml) are cultured on DMEM medium (containing 100 U/ml penicillin, 50 μg/ml streptomycin sulphate, 50 μg/ml gentamycin and 10% calf serum) in an incubator under 37[…] and 5% CO2 to form monolayer. Dissolve (±)-blebbistatin, (S)-(−)-blebbistatin and (R)-(+)-blebbistatin (purchased from Tocris Cookson, Inc. [US]) in DMSO, then perform multiple-proportion dilution with PBS, add a monolayer culture plate and continuously culture it to observe cytopathic effects (CPE). Under a conventional microscope, CPE is observed as rough cell surface, strong refractivity, and finally cell shedding. […] Therefore, (+)-blebbistatin can be used as a PRRSV-receptor blocker.

[4] = test system: MA-104 and PAM cells; assay: as above; type: cell-based
[5] = test system: NMM-II; conditions: Straight et al. Science 2003; cited from earlier work
[6] = test system: NMM-II ATPase; conditions: vertebrate cells; Straight et al. Science 2003; cited from earlier work
[7] = dilution 1/40, MA-104 and PAM cells
[8] = dilution 1/80, MA-104 and PAM cells
[9] = dilution 1/160, MA-104 and PAM cells
[10] = dilution 1/320, MA-104 and PAM cells

Row | Compound | Cell-bound serum (with or without fluorescence) [1, 7] | Cell-bound serum (with or without fluorescence) [1, 8] | Cell-bound serum (with or without fluorescence) [1, 9] | Cell-bound serum (with or without fluorescence) [1, 10] | Inhibition levels of CPE ([2]; 1 μg per well) | Inhibition levels of CPE ([2]; 2 μg per well) | Inhibition levels of CPE ([2]; 5 μg per well) | Inhibition levels of CPE ([2]; 10 μg per well) | Inhibition levels of CPE ([2]; 20 μg per well) | Inhibition levels of CPE ([2]; 50 μg per well) | Inhibition levels of CPE ([2]; 100 μg per well) | inhibition of the cell CPE caused by PRRSV ([2]; at 2 μg-100 μg/well) | effect on cell proliferation and CPE [3] | blebbistatin causing CPE or not (Yes or No) ([4]; 1 μM) | blebbistatin causing CPE or not (Yes or No) ([4]; 2 μM) | blebbistatin causing CPE or not (Yes or No) ([4]; 5 μM) | blebbistatin causing CPE or not (Yes or No) ([4]; 10 μM) | blebbistatin causing CPE or not (Yes or No) ([4]; 20 μM) | blebbistatin causing CPE or not (Yes or No) ([4]; 50 μM) | blebbistatin causing CPE or not (Yes or No) ([4]; 100 μM) | other results
1 | Polypeptide (Seq ID No: 2): NMHC II-A artificial polypeptide, amino-acid sequence Seq ID No: 2 (GAGDGSDEE) | Yes | Yes | Yes | Yes | ++ (“++” means CPE in 50% cells) | − | − | − | − | − | − | fully inhibit |  |  |  |  |  |  |  |  | 
2 | Polypeptide (Seq ID No: 4): NMHC II-A artificial polypeptide, amino-acid sequence Seq ID No: 4 (KADGAEAKPAE) | Yes | Yes | Yes | Yes | ++ (“++” means CPE in 50% cells) | − | − | − | − | − | − | fully inhibit |  |  |  |  |  |  |  |  | 
3 | Polypeptide (Seq ID No: 3): NMHC II-A artificial polypeptide, amino-acid sequence Seq ID No: 3 (GAGDGSDEEVDGKA) | Yes | Yes | Yes | Yes | ++ (“++” means CPE in 50% cells) | − | − | − | − | − | − | fully inhibit |  |  |  |  |  |  |  |  | 
4 | Cc1ccc2c(c1)C(=O)[C@]1(O)CCN(c3ccccc3)C1=N2 [(S)-(−)-blebbistatin] |  |  |  |  |  |  |  |  |  |  |  |  | can inhibit cell proliferation and cause CPE | Yes | Yes | Yes | Yes | Yes | Yes | Yes | 
5 | Cc1ccc2c(c1)C(=O)[C@@]1(O)CCN(c3ccccc3)C1=N2 [(+)-blebbistatin, (R)-(+)-blebbistatin, reference compound] |  |  |  |  |  |  |  |  |  |  |  |  | does not inhibit cell proliferation and does not cause CPE | No | No | No | No | No | No | No | Inhibition levels of CPE ([2]; 1 μM per well): + (“+” means CPE in 25% cells); Inhibition levels of CPE ([2]; 2 μM per well): −; Inhibition levels of CPE ([2]; 5 μM per well): −; Inhibition levels of CPE ([2]; 10 μM per well): −; Inhibition levels of CPE ([2]; 20 μM per well): −; Inhibition levels of CPE ([2]; 50 μM per well): −; Inhibition levels of CPE ([2]; 100 μM per well): −; inhibition of the cell CPE caused by PRRSV ([2]; at 2 μM-100 μM/well): fully inhibit; blocking of PRRSV strains from infecting cells ([2]; classic American strains (VR-2332), Chinese isolates (Ch-1a), highly pathogenic strains (JXA-1)): block the classic American strains, Chinese isolates and highly pathogenic strains of PRRSV from infecting cells; inhibition of NMM-II-dependent cellular division and proliferation [5]: does not inhibit
6 | Cc1ccc2c(c1)C(=O)C1(O)CCN(c3ccccc3)C1=N2 (racemic) [(±)-blebbistatin] |  |  |  |  |  |  |  |  |  |  |  |  | can inhibit cell proliferation and cause CPE | Yes | Yes | Yes | Yes | Yes | Yes | Yes | inhibition of NMM-II ATPase activity [6]: selective inhibitor
